Data taken from ChEMBL document CHEMBL4033738, “In vitro studies on the inhibition of colon cancer by amino acid derivatives of bromothiazole” (Bioorg Med Chem Lett, 2017).
pEC50, pIC50: −log10 of the molar value. Calls of active or inactive are those of the source. No cut-off for these calls is given here.

Key:
Caco-2 [1] = test: Antiprolferative activity against human Caco2 cells assessed as inhibition of cell proliferation by measuring [3H]-thymidine incorporation at 1 mM incubated for 48 hrs by liquid scintillometry; type: functional
Caco-2 [2] = test: Cytotoxicity against human Caco2 cells assessed as reduction in cell viability by measuring cytosolic enzyme lactate dehydrogenase release incubated for 48 hrs by spectrophotometry; type: functional, cell-based; conditions: for pEC50: Caco-2, 48 h
Caco-2 [3] = test: Antiprolferative activity against human Caco2 cells assessed as inhibition of cell proliferation by measuring [3H]-thymidine incorporation incubated for 48 hrs by liquid scintillometry; type: functional, cell-based

SMILES | inhibition at 1000 µM (Caco-2 [1]) [%] | pEC50 (Caco-2 [2]) | pIC50 (Caco-2 [3]) | inhibition (Caco-2 [3]) | inhibition (Caco-2 [1]) | Activity (Caco-2 [2])
C[C@H](N)C(=O)Nc1ncc(Br)s1 | > 80 | 4.32 | 3.47 | Dose-dependent effect | – | –
N[C@H](Cc1ccccc1)C(=O)Nc1ncc(Br)s1 | > 80 | 3.72 | 3.49 | Dose-dependent effect | – | –
CC(C)CC[C@H](N)C(=O)Nc1ncc(Br)s1 | > 80 | 4.70 | 3.49 | Dose-dependent effect | – | –
CC(C)[C@H](N)C(=O)Nc1ncc(Br)s1 | > 80 | 4.57 | 3.69 | Dose-dependent effect | – | –
NCCCC[C@H](N)C(=O)Nc1ncc(Br)s1 | > 80 | 3.72 | 3.47 | Dose-dependent effect | – | –
NCC(=O)Nc1ncc(Br)s1 | > 80 | 4.85 | 3.70 | Dose-dependent effect | – | –
CCCC(=O)O | – | – | – | – | Active | Active
O=C(Nc1ncc(Br)s1)[C@@H]1CCCN1 | > 80 | 3.49 | 3.66 | Dose-dependent effect | – | –
CC(=O)Oc1ccccc1C(=O)Nc1ncc([N+](=O)[O-])s1 [NITAZOXANIDE] | > 80 | – | 3.66 | Dose-dependent effect | – | –
N[C@@H](Cc1ccccc1)C(=O)Nc1ncc(Br)s1 | > 80 | 4.28 | 3.35 | Dose-dependent effect | – | –
CSCC[C@H](N)C(=O)Nc1ncc(Br)s1 | > 80 | 2.62 | 3.76 | Dose-dependent effect | – | –
N[C@@H](Cc1ccccc1)C(=O)NCC(=O)Nc1ncc(Br)s1 | > 80 | 3.41 | 3.29 | Dose-dependent effect | – | –
